“And” between values parts separate entries of the source, which are not always exact repeats. Equal values may be shown once.
Key:
[1] = test system: HEK293 cells; experiment: RSK signaling immunoblot in HEK293 cells; format: cell-based, human
Description: HEK293 cells (Invitrogen, R75007) were seeded at a density of 500,000 cells per well in six-well cell culture plates (Corning Incorporated Costar #3516) in Dulbecco’s modified Eagle medium (DMEM) high-glucose + GlutaMAX Supplement, pyruvate (Thermo Fisher Scientific, catalog no. 31966-021) containing penicillin G (100 U/ml), streptomycin (100 μg/ml), and 10% (v/v) FBS. Once attached, the next day, the media were changed to serum-free and the cells were starved for 16 hours followed by compound treatment with BAY-3827, BI-D1870 (MedChemExpress, #HY-10510) ± 10 μM MK-2206 dihydrochloride (MedChemExpress, #HY-10358) with 30 min incubation at 37°C followed by coincubation with […] (MedChemExpress, #HY-18739) or vehicle for additional 30 min with final assay DMSO concentration of 0.13%. All cell lines used here were tested monthly for mycoplasma and tested negative.
Following compound treatment, the cells were washed with room temperature PBS and lysed on ice with the addition of lysis buffer [50 mM tris-HCl (pH 7.5), 150 mM NaCl, 1 mM EDTA, 1 mM EGTA, 0.27 M sucrose, 1% w/v Triton X-100, 20 mM glycerol-2 phosphate disodium, 50 mM NaF, and 5 mM Na4P2O7.10 H2O] containing proteases and phosphatase inhibitors [0.5 mM phenylmethylsulfonyl fluoride (PMSF), 1 mM benzamidine HCl, leupeptin (1 μg/ml), pepstatin A (1 μg/ml), 1 μM microcystin-LR, 1 mM Na3VO4, and 1 mM DTT]. Lysates were centrifuged at 10,000g, 4°C for 10 min, and protein concentration of the supernatant was determined with the Pierce Bradford Protein Assay Kit (Thermo Fisher Scientific, #23200) and read on the Hidex Plate Reader (software version 0.5.64.0). Samples were prepared in Laemmli sample buffer (tris 200 mM, 8% SDS, EDTA 2 mM, and 40% glycerol) supplemented with 10% DTT and boiled for 5 min at 100°C. Ten micrograms of protein per sample was run on a Criterion tris-glycine polyacrylamide gel (Bio-Rad, #5678095) and transferred to a nitrocellulose membrane. For cell signaling experiments in HEK293 cells, the samples were run on a Criterion TGX stain-free precast gel (Bio-Rad, catalog no. 5678085) with transfer to a polyvinylidene difluoride membrane performed in Bio-Rad Criterion blotter (#1704071) using tris-glycine transfer buffer (Bio-Rad, #1610734) following the manufacturer’s instructions. The membranes were probed at 4°C overnight in a 4% BSA TBS-T solution containing 0.02% sodium azide with the following antibodies where appropriate: Phospho-ACC (Ser^79) (1:1000, Cell Signaling Technology, #3661S), ACC (C83B10) (1:1000, Cell Signaling Technology, #3676S), phospho-Raptor (Ser^792) (1:1000, Cell Signaling Technology, #2083S), Raptor (24C12) (1:1000, Cell Signaling Technology, #2280S), GSK3αβ (1:2000, Sigma-Aldrich, #04-903), phospho-GSK3αβ (Ser^21/9) (D17D2) (1:1000, Cell Signaling Technology, #8566S), ERK1/2 (137F5) (1:1000, Cell Signaling Technology, #4695), phospho-ERK1/2 (Thr^202/Tyr^204) (D13.14.4E) (1:1000, Cell Signaling Technology, #4370), phospho-AMPKα (Thr^172) (40H9) (1:1000, Cell Signaling Technology, #2535S), AMPKα (1:1000, Cell Signaling Technology, #2532S), anti–glyceraldehyde-3-phosphate dehydrogenase antibody (1:5000, Cell Signaling Technology, #G8795), and vinculin (1:1000, Cell Signaling Technology, #13901). Membranes were scanned using the Odyssey Fc LiCor system (exposure time, 30 s) with densitometry analysis performed using LiCor Image Studio Lite normalizing to control loading protein. Figures were made using GraphPad Prism v10.

[2] = test system: AMPKα1α2+/+ (control) primary hepatocytes; experiment: RNA-seq transcriptome analysis of primary hepatocytes; format: cell-based, mouse
Description: Primary hepatocytes were pretreated for 15 min with BAY-3827 5 μM at 37°C in MEM-199 supplemented with penicillin G (100 U/ml), streptomycin ([…]), and 100 nM dexamethasone followed by addition of MK-8722 10 μM treatment. Six hours posttreatment, the cells were washed twice with room-temperature PBS. RNA was isolated using QIAwave RNAeasy kit (catalog no. 74104) with on-column deoxyribonuclease (DNAse) treatment using Qiagen RNase-free DNase set (catalog no. 79256) following the manufacturer’s protocol. Messenger RNA-seq was performed by the Single-Cell Omics platform at the Novo Nordisk Foundation Center for Basic Metabolic Research. Libraries were prepared using the Universal Plus mRNA-seq protocol (Tecan) as recommended by the manufacturer. Libraries were quantified with NuQuant using the CLARIOstar Plate Reader (BMG Labtech), quality checked using a TapeStation instrument (Agilent Technologies), and subjected to 52–base pair paired-end sequencing on a NovaSeq 6000 (Illumina). The sequencing analysis pipeline nf-core ([69]) was used, with alignment and quantification selection of STAR and Salmon, and mouse GRCm38 set as the reference genome. Unique molecular identifier (UMI)-based deduplication was performed using UMI tools, and sorting and index alignments were completed with SAMtools as part of the pipeline. Differential expression analysis was carried out using the R package edgeR ([70]) and a batch-effect removal was performed in limma ([71]) to account for the variability induced by two mice (291 + 295) from which cells with the same treatments had been pooled to obtain the required cell confluence. Venn diagrams were produced using the R package ggvenn ([72]). […] Heatmaps of log2 counts per million normalized counts were produced using R package pheatmap ([73]). GO enrichment analysis was performed using the R package clusterProfiler version 4.6.2 ([74]) setting FDR < 0.05 with reference organism specified as mouse, pAdjustMethod was set to BH, and ontology category set to biological process, with a qvalueCutoff of 0.05. Visualization analyses were conducted in RStudio version 4.2.0 ([75]).

CCc1ccccc1C(=O)Nc1n[nH]c2c(C)c(F)c(C3C(C#N)=C(C)N(C)C(C)=C3C#N)cc12 [BAY-3827, N-[5-(3,5-dicyano-1,2,6-trimethyl-4H-pyridin-4-yl)-6-fluoro-7-methyl-1H-indazol-3-yl]-2-ethylbenzamide]
PMA-stimulated pGSK3αβ (surrogate of RSK activity) ([1]; 10 μM, in the presence of MK-2206 (10 μM)): inhibited to the same extent | ACC1 phosphorylation ([1]; serum-starved HEK293, 1 and 10 μM): dose-dependent reduction | LogFC ADORA2B ([2]; 5 μM + MK-8722 versus MK-8722): −1.3062 | LogFC AVPR1A ([2]; 5 μM + MK-8722 versus MK-8722): −1.708 | LogFC EHHADH ([2]; 5 μM + MK-8722 versus MK-8722): −1.5955 | LogFC HAL ([2]; 5 μM + MK-8722 versus MK-8722): −1.348 | LogFC HMGCR ([2]; 5 μM + MK-8722 versus MK-8722): −0.1621 | LogFC HPGD ([2]; 5 μM + MK-8722 versus MK-8722): −1.745 | LogFC LIPE ([2]; 5 μM + MK-8722 versus MK-8722): −0.2816 | LogFC LPIN2 ([2]; 5 μM + MK-8722 versus MK-8722): −0.5277 | LogFC PFKFB2 ([2]; 5 μM + MK-8722 versus MK-8722): −0.5421 | LogFC PLIN5 ([2]; 5 μM + MK-8722 versus MK-8722): −1.3 | LogFC SP1 ([2]; 5 μM + MK-8722 versus MK-8722): −0.4397 | LogFC TBC1D15 ([2]; 5 μM + MK-8722 versus MK-8722): −0.4895 | LogFC TBC1D17 ([2]; 5 μM + MK-8722 versus MK-8722): −0.5598 | MK-8722–stimulated AMPK-dependent genes down-regulated ([2]; 5 μM + MK-8722 versus MK-8722): ~ 30% and 30.1% | logFC CALCOCO1 (RSK2 gene) ([2]; 5 μM + MK-8722 versus MK-8722): -0.7893 | logFC CENPE (RSK1 gene) ([2]; 5 μM + MK-8722 versus MK-8722): -1.28 | logFC CENPI (RSK1 gene) ([2]; 5 μM + MK-8722 versus MK-8722): -0.6534 | logFC CENPW (RSK1 gene) ([2]; 5 μM + MK-8722 versus MK-8722): -0.4735 | logFC DSN1 (RSK1 gene) ([2]; 5 μM + MK-8722 versus MK-8722): -0.789 | logFC FN1 (RSK1 gene) ([2]; 5 μM + MK-8722 versus MK-8722): -0.2178 | logFC MASTL (RSK1 gene) ([2]; 5 μM + MK-8722 versus MK-8722): -0.8494 | logFC NEK2 (RSK1 gene) ([2]; 5 μM + MK-8722 versus MK-8722): -1.199 | logFC SPC25 (RSK1 gene) ([2]; 5 μM + MK-8722 versus MK-8722): -0.6826 | logFC STAT5B ([2]; 5 μM + MK-8722 versus MK-8722): -0.6006 | differentially expressed genes that are down-regulated ([2]; 5 μM + MK-8722 versus MK-8722, 2511 significant genes): 61.2% | PPARGC1A gene counts ([2]; 5 μM + MK-8722 versus MK-8722 alone): significantly reduced

From publication PMC12372887, “Mechanism and cellular actions of the potent AMPK inhibitor BAY-3827” (Science Advances, 2025)
